Assay [1] is filed under the species Danio rerio. The experiment in a line: Induction of melanogenesis in zebrafish treated for 24 hrs by absorbance based assay (reference value: 98.2 to 100.3 %). Format: functional.
Assay [2] is filed under the species Danio rerio. Briefly: Induction of melanogenesis in zebrafish treated for 24 hrs by absorbance based assay. It is filed as functional, organism-based.
The species named for assay [3] is Danio rerio. The experiment in a line: Induction of melanogenesis in zebrafish at 40 uM treated for 24 hrs by absorbance based assay relative to control. It is filed as functional.

`COc1ccc(CNc2nccc(NS(=O)(=O)c3cccc([N+](=O)[O-])c3)n2)cc1` displayed an Activity in the assay listed under Danio rerio [1] of 132.54%. The same measure, in the same setting: the same measure for `Cc1cc(-c2ccc([C@H](C)Nc3nccc(NS(=O)(=O)c4cc(C(F)(F)F)cc(C(F)(F)F)c4)n3)cc2)ccc1F`: 114.22%; for `O=[N+]([O-])c1cccc(S(=O)(=O)Nc2ccnc(NCc3ccc(C(F)(F)F)cc3)n2)c1`: 93.387%; for `C[C@H](Nc1nccc(NS(=O)(=O)c2cccc([N+](=O)[O-])c2)n1)c1ccc(-c2ccc3ccccc3c2)cc1`: 77.723%. Same read-out and setting: as for `C[C@H](Nc1nccc(NS(=O)(=O)c2cccc([N+](=O)[O-])c2)n1)c1ccc(C2CC2)cc1`, the figure is 149.56%; as for `C[C@H](Nc1nccc(NS(=O)(=O)c2cccc([N+](=O)[O-])c2)n1)c1ccc([N+](=O)[O-])cc1`, 129.75%. Still for that read-out and setting: the same measure for `C[C@H](Nc1nccc(NS(=O)(=O)c2cccc([N+](=O)[O-])c2)n1)c1ccc(-c2ccc(F)cc2)cc1`: 146.53%. Compound `Cc1cc(-c2ccc([C@H](C)Nc3nccc(NS(=O)(=O)Cc4ccccc4)n3)cc2)ccc1F` yielded an Activity in the assay filed under Danio rerio [1] of 132.22%. Still for that read-out and setting: as for `Cc1ccc(S(=O)(=O)Nc2ccnc(N[C@@H](C)c3ccc(-c4ccc(F)c(C)c4)cc3)n2)cc1`, the figure is 135.69%; as for `COc1ccc(S(=O)(=O)Nc2ccnc(N[C@@H](C)c3ccc(-c4ccc(F)c(C)c4)cc3)n2)cc1`, 67.56%; as for `O=[N+]([O-])c1cccc(S(=O)(=O)Nc2ccnc(NCc3ccccc3)n2)c1`, 107.18%. On the same count and under the same terms, the same measure for `O=[N+]([O-])c1cccc(S(=O)(=O)Nc2ccnc(Nc3ccccc3)n2)c1`: 155.77%.

`Cc1cc(-c2ccc([C@H](C)Nc3nccc(NS(=O)(=O)c4cc(F)cc(F)c4)n3)cc2)ccc1F` came in with an Activity in the assay filed under Danio rerio [1] of 81.815%. The same measure, in the same setting: the same measure for `Cc1cc(-c2ccc([C@H](C)Nc3nccc(NS(=O)(=O)c4ccc5ccccc5c4)n3)cc2)ccc1F`: 89.349%; for `Cc1cc(-c2ccc([C@H](C)Nc3nccc(NS(=O)(=O)c4cccc(C(F)(F)F)c4)n3)cc2)ccc1F`: 58.78%. `Cc1cc(-c2ccc([C@H](C)Nc3nccc(NS(=O)(=O)c4ccccc4)n3)cc2)ccc1F`: the Activity entry in the assay listed under Danio rerio [2] was “Dose-dependent-effect”. In addition, the Emax at 40 µM in the assay listed under Danio rerio [3] was 139%. `O=[N+]([O-])c1cccc(S(=O)(=O)Nc2ccnc(NCc3ccc(F)cc3)n2)c1` returned an Activity in the assay filed under Danio rerio [1] of 115.42%. In the assay listed under Danio rerio [1], `C[C@H](Nc1nccc(NS(=O)(=O)c2cccc([N+](=O)[O-])c2)n1)c1ccccc1` registered an Activity of 99.105%.

As to `C[C@H](Nc1nccc(NS(=O)(=O)c2cccc([N+](=O)[O-])c2)n1)c1ccc(-c2ccccc2)cc1`, in the assay filed under Danio rerio [1], the Activity is on record as 106.72%. `Cc1ccc(CNc2nccc(NS(=O)(=O)c3cccc([N+](=O)[O-])c3)n2)cc1` showed an Activity in the assay filed under Danio rerio [1] of 148.37%. Take `Cc1cc(-c2ccc([C@H](C)Nc3nccc(NS(=O)(=O)c4ccccc4C)n3)cc2)ccc1F`: the Activity in the assay filed under Danio rerio [1] is listed as 63.17%.

Turning to `Cc1cccc(S(=O)(=O)Nc2ccnc(N[C@@H](C)c3ccc(-c4ccc(F)c(C)c4)cc3)n2)c1`, the Activity in the assay filed under Danio rerio [1] was found to be 46.585%. With `C[C@H](Nc1nccc(NS(=O)(=O)c2cccc([N+](=O)[O-])c2)n1)c1ccc(-c2cccs2)cc1`, in the assay filed under Danio rerio [1], the Activity came to 94.688%.

The values are drawn from ChEMBL document CHEMBL6083273, “Targeting Periplakin of Novel Benzenesulfonamides as Highly Selective Agonists for the Treatment of Vitiligo” (2024).
